Data on twelve compounds can be found in patent publication US5264429A, “2-spirocyclopropyl cephalosporin sulfone derivatives” (SynPhar Laboratories, Inc., priority 1991, dated 1993).

One assay deals with T1, thrombin (Homo sapiens, UniProt P00734).
T1 construct: from tissue; host or cells: human plasma
Description: Inhibition of thrombin (THR). Type of assay: biochemical. Conditions: pH 8.6, 10 minute preincubation, 22° C. The protocol:
(§1) HLE, CTG, PPE and CTD were tested at 30° C. and the others were
(§2) TRY, trypsin; THR, thrombin; PTH, plasmin; CTC, cathepsin C; ATM,
Enzyme: Purified thrombin from human plasma
Substrate: Tosyl-glycyl-L-prolyl-L-arginine-p-NA acetate
Reaction mixture: 50 mM Tricine-NaOH buffer (pH 8.6), 500 mM NaCl, 0.1% Polyethyleneglycol 8000, 10% DMSO, 0.5 mM Substrate.
(§3) Except for Cathepsin D, the enzyme activities were determined by monitoring the increase in absorbance at 410 nm caused by the hydrolysis of chromogenic substrates. The activity of Cathepsin D was determined by monitoring the absorbance of 5% trichloroacetic acid-soluble material at 280 nm.
(§4) Inhibition of enzymes by the compounds described were determined after a 10 minute preincubation with enzymes in reaction mixtures minus substrate. Reactions were initiated by the addition of substrates. The concentration used for assays were porcine pancreatic elastase at 240 nM and human Cathepsin G at 50 nM. Cathepsin D was used at the concentration that produced approximately 0.15 O.D. increase per 20 min at 280 nm under the standard conditions. All other proteases were assayed at the concentrations that produced approximately 0.1 O.D. change per minute at 410 nm under the standard conditions.

Another assay deals with T2, cathepsin C (Bos taurus, UniProt Q3ZCJ8).
T2 construct: from tissue; host or cells: bovine spleen
T2 sequence (Q3ZCJ8 231-394 limits assumed): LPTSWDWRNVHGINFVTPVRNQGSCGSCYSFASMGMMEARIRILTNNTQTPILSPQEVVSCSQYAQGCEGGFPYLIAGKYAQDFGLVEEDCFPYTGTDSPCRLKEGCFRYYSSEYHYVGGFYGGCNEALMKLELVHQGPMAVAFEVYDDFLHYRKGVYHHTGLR
T2 sequence (Q3ZCJ8 395-463 limits assumed): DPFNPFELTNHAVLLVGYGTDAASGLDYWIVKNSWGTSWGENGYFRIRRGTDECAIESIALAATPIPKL
T2 sequence (Q3ZCJ8 25-134 limits assumed): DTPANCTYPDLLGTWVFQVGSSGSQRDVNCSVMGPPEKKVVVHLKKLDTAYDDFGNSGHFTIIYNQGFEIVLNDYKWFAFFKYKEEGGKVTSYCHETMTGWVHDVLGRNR
As to the kind of experiment: Inhibition of cathepsin C (CTC). It counts as biochemical, bovine. As to the method:
as §1, §2
Enzyme: Purified cathepsin C from bovine spleen
Substrate: Glycyl-L-phenylalanine-pNA
Reaction mixture: 50 mM Citrate buffer (pH 5.4), 5 mM B-Mercaptoethanol, 150 mM NaCl, 10% DMSO, 20 mM Substrate.
as §3, §4

A further assay has as its target T3, aminopeptidase M (Sus scrofa, UniProt P15145).
T3 construct: from tissue; host or cells: porcine kidney
T3 sequence (P15145 1-963): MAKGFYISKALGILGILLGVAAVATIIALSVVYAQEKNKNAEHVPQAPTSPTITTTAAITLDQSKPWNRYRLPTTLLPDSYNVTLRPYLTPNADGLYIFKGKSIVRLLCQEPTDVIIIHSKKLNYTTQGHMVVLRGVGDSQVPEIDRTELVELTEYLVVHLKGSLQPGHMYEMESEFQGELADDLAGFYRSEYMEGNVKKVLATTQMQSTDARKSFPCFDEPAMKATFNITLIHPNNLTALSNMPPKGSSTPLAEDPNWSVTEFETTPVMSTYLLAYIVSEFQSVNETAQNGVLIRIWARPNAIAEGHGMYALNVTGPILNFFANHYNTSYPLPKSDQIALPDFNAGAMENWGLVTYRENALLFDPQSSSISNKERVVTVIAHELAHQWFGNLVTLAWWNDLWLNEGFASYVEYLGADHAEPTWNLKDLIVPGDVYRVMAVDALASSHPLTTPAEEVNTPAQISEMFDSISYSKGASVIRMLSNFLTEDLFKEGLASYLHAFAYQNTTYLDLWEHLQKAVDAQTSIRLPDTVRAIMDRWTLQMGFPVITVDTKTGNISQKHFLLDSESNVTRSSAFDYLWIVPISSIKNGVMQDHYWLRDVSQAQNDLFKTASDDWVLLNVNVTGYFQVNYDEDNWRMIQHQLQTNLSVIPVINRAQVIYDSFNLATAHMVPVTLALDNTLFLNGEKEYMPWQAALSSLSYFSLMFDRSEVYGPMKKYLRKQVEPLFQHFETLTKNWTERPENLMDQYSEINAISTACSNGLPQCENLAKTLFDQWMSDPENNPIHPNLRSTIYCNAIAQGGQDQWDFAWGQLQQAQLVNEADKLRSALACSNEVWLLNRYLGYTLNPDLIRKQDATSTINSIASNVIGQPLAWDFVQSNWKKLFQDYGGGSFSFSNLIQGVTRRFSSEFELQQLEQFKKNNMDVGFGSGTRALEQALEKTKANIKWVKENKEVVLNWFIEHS
Description: Inhibition of aminopeptidase M (ATM). Type of assay: biochemical, porcine. As to the method:
as §1, §2
(§5) aminopeptidase M; CTG, cathespin G; CTD, cathespin D; PPE, porcine
Enzyme: Purified aminopeptidase M from porcine kidney
Reaction Mixture: 50 mM Tricine buffer (pH 7.5), 500 mM NaCl, 10% DMSO, 2.0 mM Substrate.
as §3, §4

Assay [1] deals with T4, porcine pancreatic elastase (Sus scrofa, UniProt P00772).
T4 construct: from tissue; host or cells: porcine pancreas
T4 sequence (P00772 27-266): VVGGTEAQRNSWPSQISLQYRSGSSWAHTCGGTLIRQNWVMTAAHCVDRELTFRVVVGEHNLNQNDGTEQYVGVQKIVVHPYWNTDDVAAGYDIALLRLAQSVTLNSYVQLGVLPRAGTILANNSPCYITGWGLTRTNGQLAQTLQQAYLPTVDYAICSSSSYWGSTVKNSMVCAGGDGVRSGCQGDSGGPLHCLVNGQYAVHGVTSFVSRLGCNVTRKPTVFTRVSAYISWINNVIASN
As to the kind of experiment: Inhibition of porcine pancreatic elastase (PPE). It counts as biochemical. Conditions: porcine pancreatic elastase 240 nM, pH 8.9, 10 minute preincubation, 30° C. As to the method: as §1, §5
Porcine pancreatic Elastase (PPE)
Enzyme: Purified elastase from porcine pancreas
Substrate: MeO-succinyl-L-alanyl-L-alanyl-L-prolyl-L-valine-pNA
Reaction mixture: 50 mM Tris[Tris(hydroxymethyl) aminomethane]. HCl buffer (pH 8.9), 500 mM NaCl, 10% DMSO, 1.4 mM Substrate.
as §3, §4

Where [2] appears, read: cathepsin C, pH 5.4, 10 minute preincubation, 22° C., read-out: IC50 CTC.
Where [3] appears, read: aminopeptidase M, pH 7.5, 10 minute preincubation, 22° C., read-out: IC50 ATM.

Read-outs that look alike come from different tables or passages of the source.

The term IC50 denotes the concentration at which inhibition is half-maximal. For the compound `CCO[C@H]1C(=O)N2C(C(=O)OCC(Cl)(Cl)Cl)=C(C)C3(CC3(c3ccccc3)c3ccccc3)S(=O)(=O)[C@H]12` (stereo partly drawn) [Example 7, 2,2,2-Trichloroethyl-7α-ethoxy-2-spiro(2',2'-diphenyl)cyclo-propyl-3-methyl-3-cephem-4-carboxylate-1,1-dioxide], the IC50 against thrombin is above 10 µM; at cathepsin C (setting [2]) it was above 10 µM; on aminopeptidase M (setting [3]), above 10 µM; in assay [1], 0.0161 µM.
In the case of `CC1=C(C(=O)OC(c2ccccc2)c2ccccc2)N2C(=O)[C@H](Br)[C@H]2S(=O)(=O)C12CC2(c1ccc(Cl)cc1)c1ccc(Cl)cc1` (single isomer, unassigned) [Example 12, Benzhydryl 7α-bromo-2-spiro [2',2'-(4',4'-dichloro)diphenyl]cyclopropyl-3-methyl-3-cephem-4-carboxylate-1,1-dioxide], the 50% inhibitory concentration (IC50) on thrombin is above 55.3 µM; on cathepsin C, above 55.3 µM; against aminopeptidase M it was above 55.3 µM; in assay [1], 0.235 µM.
As for `CC1=C(C(=O)OC(c2ccccc2)c2ccccc2)N2C(=O)[C@H](Br)[C@H]2S(=O)(=O)C12CC2(c1ccccc1)c1ccccc1` (single isomer, unassigned) [Example 2, benzhydryl 7α-bromo-2-spiro(2', 2'-diphenyl) cyclopropyl-3-methyl-3-cephem-4-carboxylate-1,1-dioxide], the IC50 was above 40 µM at thrombin, above 38.5 µM at cathepsin C (setting [2]), above 40 µM on aminopeptidase M (setting [3]) and 0.0183 µM in assay [1].
For the compound `CC1=C(C(=O)OC(c2ccccc2)c2ccccc2)N2C(=O)[C@H](Br)[C@H]2S(=O)(=O)C12CC2(C)c1ccccc1` (stereo partly drawn) [Example 13 (2), Benzhydryl 7α-bromo-2-spiro(2'-phenyl-2'-methyl) cyclopropyl-3-methyl-3-cephem-4-carboxylate-1,1-dioxide], the half-maximal inhibitory concentration (IC50) was above 40 µM at thrombin, above 40 µM against cathepsin C, above 40 µM against aminopeptidase M and 0.0557 µM in assay [1].
For `CC1=C(C(=O)OC(c2ccccc2)c2ccccc2)N2C(=O)[C@H](Cl)[C@H]2S(=O)(=O)C12CC2(c1ccccc1)c1ccccc1` (single isomer, unassigned) [Example 1, Benzhydryl 7α-chloro-2-spiro(2',2'-diphenyl) cyclopropyl-3-methyl-3-cephem-4-carboxylate-1,1-dioxide], the IC50 on thrombin is above 40 µM; on cathepsin C (setting [2]), above 60 µM; on aminopeptidase M (setting [3]), above 60 µM; in assay [1], 0.0328 µM.
Consider `CC1=C(C(=O)N2CCCC2)N2C(=O)[C@H](Br)[C@H]2S(=O)(=O)C12CC2(c1ccccc1)c1ccccc1` (stereo partly drawn) [Example 6, 7α Bromo-2-spiro(2',2'-diphenyl)cyclopropyl-3-methyl-3-cephem-4-pyrrolidine carboxamide-1,1-dioxide], for which the IC50 at thrombin is above 39 µM; on cathepsin C (setting [2]), above 9.77 µM; at aminopeptidase M (setting [3]), above 9.77 µM; in assay [1], 0.203 µM.
Consider `CC1=C(C(=O)OC(C)(C)C)N2C(=O)[C@H](Br)[C@H]2S(=O)(=O)C12CC2(c1ccccc1)c1ccccc1` (stereo partly drawn) [Example 3, t-Butyl 7α-bromo-2-spiro(2',2'-diphenyl) cyclopropyl-3-methyl-3-cephem 4-carboxylate-1,1-dioxide], for which the IC50 is above 41.9 µM on thrombin, above 40 µM on cathepsin C (setting [2]), above 40 µM on aminopeptidase M (setting [3]) and 0.0937 µM in assay [1].
As for `CO[C@H]1C(=O)N2C(C(=O)OCC(Cl)(Cl)Cl)=C(C)C3(CC3(c3ccccc3)c3ccccc3)S(=O)(=O)[C@H]12` (stereo partly drawn) [Example 8, 2,2,2-Trichloroethyl-7α-methoxy-2-spiro(2',2'-diphenyl) cyclopropyl-3-methyl-3-cephem-4-carboxylate-1,1-dioxide], the IC50 was above 9.98 µM on thrombin, above 9.98 µM against cathepsin C, above 9.98 µM against aminopeptidase M and 0.0228 µM in assay [1].
As for `CC1=C(C(=O)OC(c2ccccc2)c2ccccc2)N2C(=O)[C@H](Br)[C@H]2S(=O)(=O)C12CC2(c1ccc(F)cc1)c1ccc(F)cc1` (single isomer, unassigned) [Example 13, Benzhydryl 7α-bromo-2-spiro[2',2'-(4',4'-difluoro)diphenyl] cyclopropyl-3-methyl-3-cephem-4-carboxylate-1,1-dioxide], the half-inhibitory concentration (IC50) is above 40 µM on thrombin, above 40 µM against cathepsin C, above 40 µM on aminopeptidase M and 0.0637 µM in assay [1].
In the case of `CO[C@H]1C(=O)N2C(C(=O)OC(c3ccccc3)c3ccccc3)=C(C)C3(CC3(c3ccccc3)c3ccccc3)S(=O)(=O)[C@H]12` (stereo partly drawn) [Example 9, Benzhydryl 7α-methoxy-2-spiro (2',2'-diphenyl) cyclopropyl-3-methyl-3-cephem-4-carboxylate-1,1-dioxide], the IC50 is above 10 µM on thrombin, above 10 µM at cathepsin C, above 10 µM on aminopeptidase M and 0.0545 µM in assay [1].
With `CO[C@H]1C(=O)N2C(C(=O)N3CCCC3)=C(C)C3(CC3(c3ccccc3)c3ccccc3)S(=O)(=O)[C@H]12` (stereo partly drawn) [Example 10, 7α-Methoxy-2-spiro (2',2'-diphenyl)cyclopropyl-3-methyl-3-cephem-4-pyrrolidine carboxamide-1,1-dioxide], the IC50 at thrombin was above 40 µM; at cathepsin C (setting [2]), above 9.99 µM; at aminopeptidase M it was above 40 µM; in assay [1], 0.0832 µM.
As for `CCOC(=O)C1CC12C(C)=C(C(=O)OC(c1ccccc1)c1ccccc1)N1C(=O)[C@H](Br)[C@H]1S2(=O)=O` (stereo partly drawn) [Example 13 (1), Benzhydryl 7α-bromo-2-spiro(2'-ethoxycarbonyl)cyclopropyl-3-methyl-3-cephem-4-carboxylate-1,1-dioxide], the IC50 against thrombin is above 40 µM; against cathepsin C, above 40 µM; against aminopeptidase M it was above 40 µM; in assay [1], 0.0313 µM.
